Data reported in article PMC6934184, “Selective DNA-PKcs inhibition extends the therapeutic index of localized radiotherapy and chemotherapy” (The Journal of Clinical Investigation, 2019).

Target: T1, KIT D816H (Homo sapiens, UniProt P10721, D816H)
T1 construct: purchased Thermo Fisher Scientific (Life Technologies) SelectScreen
Experiment: SelectScreen LanthaScreen
Type: binding
Details: read-out: % displacement
Method in brief: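 Percent values come from Thermo SelectScreen profiling of NU5455, combining activity and binding assays. CSF1R was run in Z'LYTE format at Km app ATP, and CAMK1 in Adapta format with ATP listed at 10.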

T1 sequence (P10721 26-976 D816H): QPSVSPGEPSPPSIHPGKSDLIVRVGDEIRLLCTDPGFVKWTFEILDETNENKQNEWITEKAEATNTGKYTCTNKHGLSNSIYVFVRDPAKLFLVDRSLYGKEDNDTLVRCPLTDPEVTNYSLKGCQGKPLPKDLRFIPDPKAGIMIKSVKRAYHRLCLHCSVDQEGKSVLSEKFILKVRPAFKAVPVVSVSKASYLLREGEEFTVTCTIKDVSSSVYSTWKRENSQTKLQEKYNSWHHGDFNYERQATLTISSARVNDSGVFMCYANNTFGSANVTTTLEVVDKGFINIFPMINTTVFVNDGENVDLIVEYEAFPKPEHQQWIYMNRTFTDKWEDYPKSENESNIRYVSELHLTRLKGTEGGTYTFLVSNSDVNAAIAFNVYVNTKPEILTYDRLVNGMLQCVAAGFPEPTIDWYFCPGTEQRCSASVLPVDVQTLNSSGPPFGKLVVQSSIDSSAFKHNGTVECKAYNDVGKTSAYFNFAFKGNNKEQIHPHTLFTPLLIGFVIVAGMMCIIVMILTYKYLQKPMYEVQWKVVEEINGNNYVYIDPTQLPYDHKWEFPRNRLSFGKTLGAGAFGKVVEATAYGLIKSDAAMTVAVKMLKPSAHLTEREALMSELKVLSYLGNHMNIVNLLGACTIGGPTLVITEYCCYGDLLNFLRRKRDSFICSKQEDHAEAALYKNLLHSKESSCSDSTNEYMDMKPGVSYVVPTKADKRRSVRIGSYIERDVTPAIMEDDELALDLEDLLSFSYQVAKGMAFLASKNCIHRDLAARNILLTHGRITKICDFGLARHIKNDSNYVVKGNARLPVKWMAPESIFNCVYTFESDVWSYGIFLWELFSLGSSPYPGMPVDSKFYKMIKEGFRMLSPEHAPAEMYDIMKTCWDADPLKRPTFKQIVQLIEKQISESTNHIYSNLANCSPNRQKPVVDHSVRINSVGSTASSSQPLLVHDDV

## CN(C(=O)CN1CCOCC1)c1ccc2sc3c(-c4cccc5c(=O)cc(N6CC7CCC(C6)O7)oc45)cccc3c2c1 [NU5455]
  inhibition at 1 µM: -0.2%
